What all share (assay type): cell-based
Test [1] deals with T-Rex 293 cells having increased expression of estrogen receptor alpha protein. Briefly: Cellular growth inhibition assay, T-Rex 293 cells, (+) doxycycline. The following applies: T-REx-293, 72 h, Table 7-A; T-Rex 293 cells with doxycycline (increased ERα expression); 72 hours; CellTiter-Glo; read-out: (+) Dox GI50. In outline:
(§1)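 Cells of an inducible ERα-expressing T-Rex 293 clone are seeded in charcoal-dextran FBS medium with or without 3 ng/mL doxycycline, then treated after 24 h with compound dilutions (0.5% DMSO) for 72 h. Growth inhibition is measured by CellTiter-Glo luminescence and expressed as GI50.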
For orientation: In ATP-based viability assays light output follows the ATP content of the culture.

The subject of test [2] is MCF7 cells (ATCC #HTB-22). Briefly: Cellular growth inhibition assay, MCF7 cells purchased from ATCC. The following applies: Homo sapiens, MCF7, 144 h, Table 8-A; MCF7 cells purchased from ATCC; six days; CellTiter-Glo; read-out: GI50. In outline: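 GI50 values come from a four-parameter fit of CellTiter-Glo 2.0 luminescence after six days of compound exposure at 37° C. Seeding density depended on the source: 225 cells/well for ECACC MCF7, 1,500 for ATCC. Medium was RPMI 1640 with 10% FBS and 0.2 U/ml insulin.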

The subject of test [3] is T-Rex 293 cells lacking increased expression of estrogen receptor alpha protein. The experiment in a line: Cellular growth inhibition assay, T-Rex 293 cells, (−) doxycycline. The following applies: T-REx-293, 72 h, Table 7-A; T-Rex 293 cells without doxycycline (lacking increased ERα expression); 72 hours; CellTiter-Glo; read-out: (−) Dox GI50. The essentials: as §1

A word on the GI50: it is the concentration giving 50% growth inhibition. For `Cc1sc2c(c1C)C(c1ccc(N3CCC4(CCN(CC5CCN(c6ccc([C@@H]7c8ccc(O)cc8CC[C@@H]7c7ccccc7)cc6)CC5)CC4)C3)cc1)=N[C@@H](Cc1ncco1)c1nnc(C)n1-2` [III-202], the GI50 is under 50 nM in test [1], under 50 nM in test [2] and 50 to 500 nM in test [3].
Regarding `Cc1sc2c(c1C)C(c1ccc(N3CC(CC4(F)CCN(CC5CN(c6ccc([C@@H]7c8ccc(O)cc8CC[C@@H]7c7ccccc7)cc6)C5)CC4)C3)cc1)=N[C@@H](C)c1nnc(C)n1-2` [III-203], the GI50 in test [1] was under 50 nM; in test [2] it was under 50 nM; in test [3], 500 to 2500 nM.
For the compound `Cc1sc2c(c1C)C(c1ccc(N3CCC(O)(CN4CCN(c5ccc([C@@H]6c7ccc(C(=O)O)cc7CC[C@@H]6c6ccc(F)cc6F)cc5)CC4)CC3)cc1)=N[C@@H](C)c1nnc(C)n1-2` [III-204], the 50% growth inhibitory concentration (GI50) is under 50 nM in test [1], 50 to 500 nM in test [2] and 500 to 2500 nM in test [3].
On to `Cc1sc2c(c1C)C(c1ccc(N3CCC(O)(CN4CCN(c5ccc([C@H]6c7ccc(C(=O)O)cc7CC[C@H]6c6ccc(F)cc6F)cc5)CC4)CC3)cc1)=N[C@@H](C)c1nnc(C)n1-2` [III-205], for which the figures for the 50% growth inhibitory concentration (GI50) in test [1], in test [2] and in test [3] were 50 to 500 nM, 50 to 500 nM and 500 to 2500 nM, respectively.
Consider `Cc1sc2c(c1C)C(c1ccc(N3CC4(CCC(O)(CN5CCC(c6ccc([C@@H]7c8ccc(O)cc8CC[C@@H]7c7ccccc7)cc6)CC5)CC4)C3)cc1)=N[C@@H](C)c1nnc(C)n1-2` [III-206], for which the 50% growth inhibitory concentration (GI50) was under 50 nM in test [1], under 50 nM in test [2] and 500 to 2500 nM in test [3].
As to `Cc1sc2c(c1C)C(c1ccc(N3CCC(O)(CN4CCN(c5ccc([C@H]6c7ccc(O)cc7CC[C@H]6c6ccc(F)cc6)cc5)CC4)CC3)cc1)=N[C@H](Cc1ncco1)c1nnc(C)n1-2` [III-207], the GI50 in test [1] was over 2500 nM; in test [2] it was 500 to 2500 nM; in test [3] it was over 2500 nM.
In the case of `Cc1sc2c(c1C)C(c1ccc(N3CCC(O)(CN4CCN(c5ccc([C@@H]6c7ccc(O)cc7CC[C@@H]6c6ccc(F)cc6)cc5)CC4)CC3)cc1)=N[C@H](Cc1ncco1)c1nnc(C)n1-2` [III-208], the results for the GI50 in test [1], in test [2] and in test [3] were over 2500 nM, 500 to 2500 nM and over 2500 nM, respectively.
With `Cc1sc2c(c1C)C(c1ccc(N3CCC(O)(CN4CCN(c5ccc([C@H]6c7ccc(O)cc7CC[C@H]6c6ccc(F)cc6)cc5)CC4)CC3)cc1)=N[C@@H](Cc1ncco1)c1nnc(C)n1-2` [III-209], the GI50 in test [1] was under 50 nM; in test [2], 50 to 500 nM; in test [3] it was 50 to 500 nM.
In the case of `Cc1sc2c(c1C)C(c1ccc(N3CCC(O)(CN4CCN(c5ccc([C@@H]6c7ccc(O)cc7CC[C@@H]6c6ccc(F)cc6)cc5)CC4)CC3)cc1)=N[C@@H](Cc1ncco1)c1nnc(C)n1-2` [III-210], the GI50 in test [1] was under 50 nM; in test [2], under 50 nM; in test [3] it was 50 to 500 nM.
In the case of `Cc1sc2c(c1C)C(c1ccc(N3CC4(CCC(O)(CN5CCC(c6ccc([C@@H]7c8ccc(O)cc8CC[C@@H]7c7ccccc7)cc6)CC5)CC4)C3)cc1)=N[C@@H](Cc1ncco1)c1nnc(C)n1-2` [III-211], the 50% growth inhibitory concentration (GI50) is under 50 nM in test [1], under 50 nM in test [2] and 50 to 500 nM in test [3].
On to `Cc1sc2c(c1C)C(c1ccc(N3CC(CN4CCC(F)(CC5CN(c6ccc([C@@H]7c8ccc(O)cc8CC[C@@H]7c7ccccc7)cc6)C5)CC4)C3)cc1)=N[C@@H](C)c1nnc(C)n1-2` [III-212], for which the concentration for 50% growth inhibition (GI50) in test [1] was under 50 nM; in test [2], under 50 nM; in test [3], 50 to 500 nM.
In the case of `Cc1sc2c(c1C)C(c1ccc(N3CCC(O)(CN4CCN(c5ccc([C@H]6c7ccc(C(=O)O)cc7CC[C@H]6c6ccc(F)cc6F)cc5)CC4)CC3)cc1)=NC(Cc1ncco1)c1nnc(C)n1-2` (stereo partly drawn) [III-213], the GI50 in test [1], in test [2] and in test [3] was over 2500 nM throughout.
For `Cc1sc2c(c1C)C(c1ccc(N3CCC(O)(CN4CCN(c5ccc([C@@H]6c7ccc(C(=O)O)cc7CC[C@@H]6c6ccc(F)cc6F)cc5)CC4)CC3)cc1)=NC(Cc1ncco1)c1nnc(C)n1-2` (stereo partly drawn) [III-214], the GI50 in test [1] was under 50 nM; in test [2] it was under 50 nM; in test [3], 50 to 500 nM.
Turning to `Cc1sc2c(c1C)C(c1ccc(N3CCN(CC4CCN(c5ccc([C@@H]6c7ccc(O)cc7CC[C@@H]6c6ccccc6)cc5)CC4)CC3)cc1)=N[C@@H](Cn1cccn1)c1nnc(C)n1-2` [III-215], the results for the GI50 in test [1], in test [2] and in test [3] were under 50 nM, under 50 nM and over 2500 nM, respectively.

(Values after US12558428B2, “Heterobifunctional compounds and their use in treating disease” (Halda Therapeutics OpCo, Inc., priority 2024, dated 2026).)
